Results on 6 molecules are retold here after patent US8673652B2, “Immunoassay with extended detection window” (priority 2010, dated 2014).

In brackets after ≈: the same amount, converted by molar mass.

In data set [1] the test system is polyclonal antibody raised against zolpidem analogue derivatised at the 4'-phenyl ring coupled to BTG. Nature of the data set: Competitive ELISA for zolpidem (antibody specificity and sensitivity). In kind it is binding, sheep. As to conditions: for IC50 (ng/ml) / IC50: competitive ELISA, hapten-HRP conjugate, absorbance at 450 nm; for % CR = percentage cross-reactivity based on 100% specificity to zolpidem: relative to zolpidem = 100%. How it is done:
Analogues of zolpidem derivatised at the 4′-phenyl ring were coupled by way of a crosslinker to bovine thyroglobulin (BTG). The resulting immunogens were administered separately to adult sheep on a monthly basis to provide target-specific polyclonal antisera. IgG was extracted from the antisera via caprylic acid/ammonium sulphate precipitation of immunoglobulin. Microtitre plates were coated with antibody (125 μl/well) in coating buffer (10 mM Tris pH 8.5) at 37° C. for 2 h. The plates were then washed 4 times over 10 mins with working strength TBST. 50 μl of sample/standard (zolpidem, Sequioa SRP00500z; alpidem, TRC A575560; zaleplon, Sequioa SRP00300z; zopiclone, Sequioa SRP02000z; zolpidem Carboxylic Acid, Randox LK865 and zolpidem carboxylic acid, Randox LK855) was added to the appropriate wells in triplicate, followed by 75 μl of hapten-HRP conjugate and incubated at 25° C. for 1 h. The plates were then washed and 125 μl of TMB (Randox, 4380-15) was added to each well and left at room temperature for 20 mins in the dark. The reaction was stopped using 125 μl of 0.2M sulphuric acid. The absorbances were read at 450 nm with an ELISA microplate reader (BIO-TEK Instruments, Elx800) and the means calculated. Antibody specificity and sensitivity were then determined.
Competitive ELISA results in Table 1 and FIG. 3 highlight the specificity of the antibody of the disclosure towards zolpidem and cross-reactivity towards 4-[3-(2-N,N-dimethylamino-2-oxoethyl)-6-methylimidazo[1,2-a]pyridin-2-yl]benzoic acid. […] The disclosure, through its unique immunogens and antibodies, thus enables methods and kits able to detect and determine zolpidem and/or 4-[3-(2-N,N-dimethylamino-2-oxoethyl)-6-methylimidazo[1,2-a]pyridin-2-yl]benzoic acid with high sensitivity.
Background: ELISA stands for enzyme-linked immunosorbent assay.

The conditions of data set [2]: cited from earlier work.

Take `CCCN(CCC)C(=O)Cc1c(-c2ccc(Cl)cc2)nc2ccc(Cl)cn12` [Alpidem, alpidem]: in data set [1], the “IC50 (ng/ml)” value is given as >>50 ng/ml and the “% CR = percentage cross-reactivity based on 100% specificity to zolpidem” value (“% CR = percentage cross-reactivity based” for short) is <<1.26%.

Consider `Cc1ccc2nc(-c3ccc(C(=O)O)cc3)c(CC(=O)N(C)C)n2c1` [Hapten M1, 4-[3-(2-N,N-dimethylamino-2-oxoethyl)-6-methylimidazo[1,2-a]pyridin-2-yl]benzoic acid], for which, in data set [1], the IC50 (in general, the concentration at which inhibition is half-maximal) was 3.33 ng/mL (≈ 9.87 nM) and the “% CR = percentage cross-reactivity based” value came to 18.6%. Also, the “share of metabolite produced by cytochrome P450 mediated metabolism of zolpidem” value in data set [2] (metabolism mediated by cytochrome P450) was “more than 80%”.

As for `Cc1ccc(-c2nc3ccc(C(=O)O)cn3c2CC(=O)N(C)C)cc1` [Hapten M2, 3-(2-N,N-dimethylamino-2-oxoethyl)-2-(4-methylphenyl)imidazo[1,2-a]pyridin-6-yl carboxylic acid], in data set [1], the “IC50” value was >500 ng/mL and the “% CR = percentage cross-reactivity based” value is <0.13%.

In the case of `CCN(C(C)=O)c1cccc(-c2ccnc3c(C#N)cnn23)c1` [Zaleplon, zaleplon], in data set [1], the “IC50 (ng/ml)” value is recorded as >>50 ng/ml and the “% CR = percentage cross-reactivity based” value was <<1.26%.

Turning to `Cc1ccc(-c2nc3ccc(C)cn3c2CC(=O)N(C)C)cc1` [Zolpidem, N,N-dimethyl-2-[6-methyl-2-(4-methylphenyl)imidazo[1,2-a]pyridin-3-yl]acetamide], in data set [1], the “IC50” value turned out to be 0.63 ng/mL (≈ 2.05 nM) and the “% CR = percentage cross-reactivity based” value is on record as 100%. In data set [2] (upon ingestion), the half-life (in general, the time in which the quantity being followed falls by half) is 1.5 to 3 h.

On to `CN1CCN(C(=O)OC2c3nccnc3C(=O)N2c2ccc(Cl)cn2)CC1` (centres unmarked) [Zopiclone, zopiclone], for which, in data set [1], the “IC50 (ng/ml)” value was >>50 ng/ml and the “% CR = percentage cross-reactivity based” value was <<1.26%.
